# Laboratory results as given in ChEMBL document CHEMBL5726262, “BET protein-inhibiting 5-aryltriazoleazepines” (2017).
# Target: Bromodomain-containing protein 4 (Homo sapiens, UniProt O60885)
# Assay: Time-Resolved Fluorescence Resonance energy Transfer (TR-FRET) Assay: For this purpose, a time-resolved fluorescence resonance energy transfer (TR-FRET) assay was used, which measures the binding between N-terminally His6-tagged BRD4(1) (amino acids 44-168) and a synthetic acetylated histone H4 (Ac-H4) peptide with sequence GRGK(Ac)GGK(Ac)GLGK(Ac)GGAK(Ac)RHGSGSK-biotin. The recombinant BRD4 protein produced in-house according to Filippakopoulos et al., Cell, 2012, 149:214-231 was expressed in E. coli and purified by means of (Ni-NTA) affinity and (Sephadex G-75) size exclusion chromatography. The Ac-H4 peptide can be purchased, for example, from Biosyntan (Berlin, Germany).In the assay, typically 11 different concentrations of each substance (0.1 nM, 0.33 nM, 1.1 nM, 3.8 nM, 13 nM, 44 nM, 0.15 μM, 0.51 μM, 1.7 μM, 5.9 μM and 20 μM) were analysed as duplicates on the same microtitre plate. For this purpose, 100-fold concentrated solutions in DMSO were prepared by serial dilutions (1:3.4) of a 2 mM stock solution into a clear, 384-well microtitre plate (Greiner Bio-One, Frickenhausen, Germany). From this, 50 nl were transferred into a black test plate (Greiner Bio-One, Frickenhausen, Germany). […]
compound,measurement,value
Cc1nnc2n1-c1ccc(OC(F)(F)F)cc1C(c1ccc(Cl)cc1)=C[C@H]2CC(=O)N1CC2(COC2)C1,IC50,220 nM
